Data published in US20260092071A1, “COMPOUNDS AND COMPOSITIONS AS SMARCA2/4 DEGRADERS AND USES THEREOF” (REGENTS OF THE UNIVERSITY OF MICHIGAN, priority 2022, published 2026).
Read-outs that look alike come from different tables or passages of the source.

Tests used:
[1] = target: SMARCA2 (Homo sapiens, UniProt P51531); experiment: HiBiT assay for protein degradation, Hela SMARCA2-HiBiT cells (A series); assay type: cell-based; set-up: Hela cells were genetically modified via CRISPR/Cas9 to fuse HiBiT to the carboxy terminus of SMARCA2; host or cells: HeLa (CRISPR/Cas9 HiBiT knock-in); details: for DC50: read-out: SMARC A2 Hela HiBit DC50; for Dmax: read-out: SMARC A2 Hela HiBit Dmax (%);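 as to SMARC A2 Hela HiBit Dmax (%): 24 h compound treatment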
Chain of SMARCA2 (P51531 whole entry, the tested form may be a part): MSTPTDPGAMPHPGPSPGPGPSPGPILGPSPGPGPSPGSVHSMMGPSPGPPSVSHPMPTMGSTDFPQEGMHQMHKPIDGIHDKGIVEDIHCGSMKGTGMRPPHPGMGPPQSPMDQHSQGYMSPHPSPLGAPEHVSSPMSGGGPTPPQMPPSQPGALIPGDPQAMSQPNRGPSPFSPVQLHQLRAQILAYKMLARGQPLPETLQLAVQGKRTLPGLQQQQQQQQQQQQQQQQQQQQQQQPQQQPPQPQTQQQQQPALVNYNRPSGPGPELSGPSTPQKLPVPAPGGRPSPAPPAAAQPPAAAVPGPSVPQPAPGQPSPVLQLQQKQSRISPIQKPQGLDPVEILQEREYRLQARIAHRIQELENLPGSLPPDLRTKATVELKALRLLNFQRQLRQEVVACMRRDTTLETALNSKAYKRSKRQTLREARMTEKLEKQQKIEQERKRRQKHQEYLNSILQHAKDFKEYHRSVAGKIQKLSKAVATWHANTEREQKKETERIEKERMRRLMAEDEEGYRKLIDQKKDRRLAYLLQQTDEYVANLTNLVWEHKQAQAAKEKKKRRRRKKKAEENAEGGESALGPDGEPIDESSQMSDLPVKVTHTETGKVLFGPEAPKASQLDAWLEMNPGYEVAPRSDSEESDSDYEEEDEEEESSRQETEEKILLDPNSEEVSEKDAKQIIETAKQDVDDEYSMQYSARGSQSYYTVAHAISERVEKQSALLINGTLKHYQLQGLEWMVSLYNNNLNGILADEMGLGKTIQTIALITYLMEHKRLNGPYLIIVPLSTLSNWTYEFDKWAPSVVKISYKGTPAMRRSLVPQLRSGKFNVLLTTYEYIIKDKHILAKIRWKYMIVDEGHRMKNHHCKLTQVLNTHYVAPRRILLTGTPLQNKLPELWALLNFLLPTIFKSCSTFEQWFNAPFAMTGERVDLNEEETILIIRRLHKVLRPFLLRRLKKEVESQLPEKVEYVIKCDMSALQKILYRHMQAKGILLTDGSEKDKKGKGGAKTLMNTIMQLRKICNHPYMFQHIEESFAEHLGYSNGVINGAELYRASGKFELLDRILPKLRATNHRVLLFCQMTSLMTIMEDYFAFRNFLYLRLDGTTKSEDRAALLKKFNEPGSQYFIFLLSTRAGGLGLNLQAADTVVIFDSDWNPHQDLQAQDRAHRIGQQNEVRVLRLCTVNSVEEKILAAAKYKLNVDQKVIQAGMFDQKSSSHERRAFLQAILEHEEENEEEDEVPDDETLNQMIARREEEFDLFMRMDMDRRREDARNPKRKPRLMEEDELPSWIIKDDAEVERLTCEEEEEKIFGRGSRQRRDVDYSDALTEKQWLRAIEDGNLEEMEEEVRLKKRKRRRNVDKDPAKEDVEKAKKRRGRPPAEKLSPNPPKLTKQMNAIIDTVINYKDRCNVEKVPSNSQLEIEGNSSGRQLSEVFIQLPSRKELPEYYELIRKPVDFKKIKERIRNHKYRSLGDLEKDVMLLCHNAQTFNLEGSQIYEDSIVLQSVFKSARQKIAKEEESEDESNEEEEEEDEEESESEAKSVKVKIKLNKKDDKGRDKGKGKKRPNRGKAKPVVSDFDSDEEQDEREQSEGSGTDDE
Outline: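 HeLa cells engineered by CRISPR/Cas9 to carry a HiBiT tag fused to the C-terminus of SMARCA2 (Promega CS302365) were grown in DMEM supplemented with FBS and penicillin-streptomycin. After treatment, remaining SMARCA2 protein was quantified with the Nano-Glo® HiBiT Lytic Detection Assay (Promega N3050), and curves were fitted in GraphPad Prism.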

[2] = target: SMARCA4 (Homo sapiens, UniProt P51532); experiment: HiBiT assay for protein degradation, Hela SMARCA4-HiBiT cells (A series); assay type: cell-based; set-up: fuse HiBiT to the carboxy terminus of SMARCA2 (Promega CS302365) or SMARCA4 (Promega CS3023225); host or cells: HeLa (CRISPR/Cas9 HiBiT knock-in); details: for DC50: read-out: SMARC A4 Hela HiBit DC50
Chain of SMARCA4 (P51532 whole entry): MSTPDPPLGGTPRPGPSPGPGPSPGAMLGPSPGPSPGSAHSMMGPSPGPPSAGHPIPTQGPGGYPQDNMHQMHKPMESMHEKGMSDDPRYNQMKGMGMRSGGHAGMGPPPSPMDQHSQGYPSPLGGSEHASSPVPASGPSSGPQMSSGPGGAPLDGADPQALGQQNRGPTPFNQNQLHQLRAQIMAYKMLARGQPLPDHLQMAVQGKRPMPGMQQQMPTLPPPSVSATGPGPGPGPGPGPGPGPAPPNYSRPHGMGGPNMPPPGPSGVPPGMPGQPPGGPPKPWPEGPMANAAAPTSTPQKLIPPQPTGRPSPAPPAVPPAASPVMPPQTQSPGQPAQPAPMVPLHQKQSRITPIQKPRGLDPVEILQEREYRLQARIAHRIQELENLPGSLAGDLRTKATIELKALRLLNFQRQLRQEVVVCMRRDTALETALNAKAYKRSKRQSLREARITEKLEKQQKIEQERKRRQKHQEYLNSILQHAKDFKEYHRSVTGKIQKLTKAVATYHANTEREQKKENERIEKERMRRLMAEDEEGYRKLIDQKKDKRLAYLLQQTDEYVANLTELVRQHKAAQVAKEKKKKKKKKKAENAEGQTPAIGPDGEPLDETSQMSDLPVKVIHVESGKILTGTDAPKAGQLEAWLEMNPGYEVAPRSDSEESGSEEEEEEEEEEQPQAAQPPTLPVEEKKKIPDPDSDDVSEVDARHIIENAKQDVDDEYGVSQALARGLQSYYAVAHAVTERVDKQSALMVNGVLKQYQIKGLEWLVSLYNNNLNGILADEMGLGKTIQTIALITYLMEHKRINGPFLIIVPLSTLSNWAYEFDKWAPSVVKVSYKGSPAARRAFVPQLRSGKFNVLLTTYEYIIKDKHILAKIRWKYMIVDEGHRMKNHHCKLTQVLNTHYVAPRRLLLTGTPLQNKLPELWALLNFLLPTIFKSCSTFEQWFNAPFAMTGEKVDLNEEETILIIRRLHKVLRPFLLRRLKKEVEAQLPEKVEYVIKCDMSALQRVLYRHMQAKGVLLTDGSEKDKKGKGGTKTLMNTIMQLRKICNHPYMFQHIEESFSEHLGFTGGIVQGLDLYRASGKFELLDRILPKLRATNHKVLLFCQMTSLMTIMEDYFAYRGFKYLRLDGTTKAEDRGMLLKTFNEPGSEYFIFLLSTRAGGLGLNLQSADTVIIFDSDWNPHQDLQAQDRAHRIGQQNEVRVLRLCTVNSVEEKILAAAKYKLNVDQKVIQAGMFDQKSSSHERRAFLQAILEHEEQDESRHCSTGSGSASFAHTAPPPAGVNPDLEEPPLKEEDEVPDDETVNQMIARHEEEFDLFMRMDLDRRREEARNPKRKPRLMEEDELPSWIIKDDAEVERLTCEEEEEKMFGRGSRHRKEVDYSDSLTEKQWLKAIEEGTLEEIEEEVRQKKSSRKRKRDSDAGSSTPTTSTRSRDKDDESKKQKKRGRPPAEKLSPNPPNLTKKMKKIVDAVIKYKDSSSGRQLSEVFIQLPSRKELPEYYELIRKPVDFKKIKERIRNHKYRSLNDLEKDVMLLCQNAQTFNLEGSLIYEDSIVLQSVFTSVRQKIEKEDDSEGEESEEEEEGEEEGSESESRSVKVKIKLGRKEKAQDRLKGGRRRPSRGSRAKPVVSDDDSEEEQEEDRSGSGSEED
Procedure: Hela cells were genetically modified via CRISPR/Cas9 to fuse HiBiT to the carboxy terminus of SMARCA2 (Promega CS302365) or SMARCA4 (Promega CS3023225). Cells were cultured in DMEM containing 10% FBS and 1% (Vol:Vol) penicillin-streptomycin. […] At the end of experiment, levels of SMARCA2 or SMARCA4 expression were assessed with Nano-Glo® HiBiT Lytic Detection Assay (Promega N3050). IC50 was obtained using the GraphPad Prism data analysis software.

[3] = Hela SMARCA2-HiBiT cells, 24 hours treatment
[4] = Hela SMARCA4-HiBiT cells, 24 hours treatment
[5] = Hela SMARCA4-HiBiT cells, 24 hours treatment, read-out: SMARC A4 Hela HiBit Dmax
[6] = Hela SMARCA4-HiBiT cells, 24 hours treatment, read-out: SMARC A4 Hela HiBit Dmax(%)

Row | Compound | DC50 [1, 3] [µM] | Dmax [1, 3] [%] | DC50 [2, 4] [µM] | Dmax [2, 5] [%] | Dmax [2, 6] [%] | SMARC A2 Hela HiBit Dmax (%) [1, 3] | DC50 [1] [µM] | SMARC A4 Hela HiBit Dmax(%) [2, 4] | DC50 [2] [µM]
1 | Cc1ncsc1-c1ccc([C@H](C)NC(=O)[C@@H]2C[C@@H](O)CN2C(=O)[C@@H](n2cc([C@H]3CC[C@H](CN4CCC(c5ccc6c(c5)-n5c(nc(=O)c7c(Cl)cccc75)C6(C)C)CC4)CC3)nn2)C(C)(C)C)cc1 [Compound A89, (2S,4R)-1-((S)-2-(4-((1r,4S)-4-((4-(4-chloro-7,7-dimethyl-5-oxo-5,7-dihydroindolo[1,2-a]quinazolin-10-yl)piperidin-1-yl)methyl)cyclohexyl)-1H-1,2,3-triazol-1-yl)-3,3-dimethylbutanoyl)-4-hydroxy-N—((S)-1-(4-(4-methylthiazol-5-yl)phenyl)ethyl)pyrrolidine-2-carboxamide] | < 0.01 | > 90 | > 1 | 50 to 69 |  |  |  |  | 
2 | Cc1ncsc1-c1ccc([C@H](C)NC(=O)[C@@H]2C[C@@H](O)CN2C(=O)[C@@H](n2cc(CCN3CCC(c4ccc5c(c4)C4(CCCCC4)c4nc(=O)c6c(Br)cccc6n4-5)CC3)nn2)C(C)(C)C)cc1 [Compound A54, (2S,4R)-1-((S)-2-(4-(2-(4-(4′-bromo-5′-oxo-5′H-spiro[cyclohexane-1,7′-indolo[1,2-a]quinazolin]-9′-yl)piperidin-1-yl)ethyl)-1H-1,2,3-triazol-1-yl)-3,3-dimethylbutanoyl)-4-hydroxy-N—((S)-1-(4-(4-methylthiazol-5-yl)phenyl)ethyl)pyrrolidine-2-carboxamide] | < 0.1 | > 90 | < 0.1 |  | > 90 |  |  |  | 
3 | Cc1ncsc1-c1ccc([C@H](C)NC(=O)[C@@H]2C[C@@H](O)CN2C(=O)[C@@H](n2cc(CCCCCCN3CCC(c4ccc5c(c4)C4(CCCCC4)c4nc(=O)c6c(Br)cccc6n4-5)CC3)nn2)C(C)(C)C)cc1 [Compound A58, (2S,4R)-1-((S)-2-(4-(6-(4-(4′-bromo-5′-oxo-5′H-spiro[cyclohexane-1,7′-indolo[1,2-a]quinazolin]-9′-yl)piperidin-1-yl)hexyl)-1H-1,2,3-triazol-1-yl)-3,3-dimethylbutanoyl)-4-hydroxy-N—((S)-1-(4-(4-methylthiazol-5-yl)phenyl)ethyl)pyrrolidine-2-carboxamide] | < 0.1 | > 90 | < 0.1 |  | > 90 |  |  |  | 
4 | Cc1ncsc1-c1ccc([C@H](CN2CCC(O)CC2)NC(=O)[C@@H]2C[C@@H](O)CN2C(=O)[C@@H](n2cc([C@H]3CC[C@H](CN4CCC(c5ccc6c(c5)-n5c(nc(=O)c7c(Cl)cccc75)C65CCCCC5)CC4)CC3)nn2)C(C)(C)C)cc1 [Compound A73, (2S,4R)-1-((S)-2-(4-((1r,4S)-4-((4-(4′-chloro-5′-oxo-5′H-spiro[cyclohexane-1,7′-indolo[1,2-a]quinazolin]-10′-yl)piperidin-1-yl)methyl)cyclohexyl)-1H-1,2,3-triazol-1-yl)-3,3-dimethylbutanoyl)-4-hydroxy-N—((R)-2-(4-hydroxypiperidin-1-yl)-1-(4-(4-methylthiazol-5-yl)phenyl)ethyl)pyrrolidine-2-carboxamide] | < 0.1 | > 90 | > 1 |  | 50 to 69 |  |  |  | 
5 | Cc1ncsc1-c1ccc([C@H](CN2CC3(COC3)C2)NC(=O)[C@@H]2C[C@@H](O)CN2C(=O)[C@@H](n2cc([C@H]3CC[C@H](CN4CCC(c5ccc6c(c5)-n5c(nc(=O)c7c(Cl)cccc75)C6(C)C)CC4)CC3)nn2)C(C)(C)C)cc1 [Compound A98, (2S,4R)-1-((S)-2-(4-((1r,4S)-4-((4-(4-chloro-7,7-dimethyl-5-oxo-5,7-dihydroindolo[1,2-a]quinazolin-10-yl)piperidin-1-yl)methyl)cyclohexyl)-1H-1,2,3-triazol-1-yl)-3,3-dimethylbutanoyl)-4-hydroxy-N—((R)-1-(4-(4-methylthiazol-5-yl)phenyl)-2-(2-oxa-6-azaspiro[3.3]heptan-6-yl)ethyl)pyrrolidine-2-carboxamide] | < 0.01 | > 90 | > 1 | < 50 |  |  |  |  | 
6 | CC(C)(C)[C@H](NC(=O)C1(F)CC1)C(=O)N1C[C@H](O)C[C@H]1C(=O)N[C@@H](CCCCCN1CCC(c2ccc3c(c2)C2(CCCCC2)c2nc(=O)c4c(Br)cccc4n2-3)CC1)c1ccc(Cl)cc1 [Compound A25, (2S,4R)—N—((S)-6-(4-(4′-bromo-5′-oxo-5′H-spiro[cyclohexane-1,7-indolo[1,2-a]quinazolin]-9′-yl)piperidin-1-yl)-1-(4-chlorophenyl)hexyl)-1-((S)-2-(1-fluorocyclopropane-1-carboxamido)-3,3-dimethylbutanoyl)-4-hydroxypyrrolidine-2-carboxamide] | > 1 | < 50 | > 1 |  | < 50 |  |  |  | 
7 | COC(=O)C[C@H](NC(=O)[C@@H]1C[C@@H](O)CN1C(=O)[C@@H](n1cc([C@H]2CC[C@H](CN3CCC(c4ccc5c(c4)-n4c(nc(=O)c6c(Cl)cccc64)C54CCCCC4)CC3)CC2)nn1)C(C)(C)C)c1ccc(-c2scnc2C)cc1 [Compound A145, methyl(S)-3-((2S,4R)-1-((S)-2-(4-((1r,4S)-4-((4-(4′-chloro-5′-oxo-5′H-spiro[cyclohexane-1,7′-indolo[1,2-a]quinazolin]-10′-yl)piperidin-1-yl)methyl)cyclohexyl)-1H-1,2,3-triazol-1-yl)-3,3-dimethylbutanoyl)-4-hydroxypyrrolidine-2-carboxamido)-3-(4-(4-methylthiazol-5-yl)phenyl) propanoate] | < 0.01 | > 90 | > 1 | 50 to 69 |  |  |  |  | 
8 | Cc1ncsc1-c1ccc([C@H](CN2CCC(C(F)F)CC2)NC(=O)[C@@H]2C[C@@H](O)CN2C(=O)[C@@H](n2cc([C@H]3CC[C@H](CN4CCC(c5ccc6c(c5)-n5c(nc(=O)c7c(Cl)cccc75)C65CCCCC5)CC4)CC3)nn2)C(C)(C)C)cc1 [Compound A84, (2S,4R)-1-((S)-2-(4-((1r,4S)-4-((4-(4′-chloro-5′-oxo-5′H-spiro[cyclohexane-1,7′-indolo[1,2-a]quinazolin]-10′-yl)piperidin-1-yl)methyl)cyclohexyl)-1H-1,2,3-triazol-1-yl)-3,3-dimethylbutanoyl)-N—((R)-2-(4-(difluoromethyl)piperidin-1-yl)-1-(4-(4-methylthiazol-5-yl)phenyl)ethyl)-4-hydroxypyrrolidine-2-carboxamide] | 0.01 to 0.1 | > 90 | > 1 | < 50 |  |  |  |  | 
9 | Cc1ncsc1-c1ccc([C@H](CN2CCOCC2)NC(=O)[C@@H]2C[C@@H](O)CN2C(=O)[C@@H](NC(=O)C23CCC(CN4CCC(c5ccc6c(c5)-n5c(nc(=O)c7c(Br)cccc75)C65CCCCC5)CC4)(CC2)CC3)C(C)(C)C)cc1 [Compound A30, (2S,4R)-1-((S)-2-(4-((4-(4′-bromo-5′-oxo-5′H-spiro[cyclohexane-1,7′-indolo[1,2-a]quinazolin]-10′-yl)piperidin-1-yl)methyl)bicyclo[2.2.2]octane-1-carboxamido)-3,3-dimethylbutanoyl)-4-hydroxy-N—((R)-1-(4-(4-methylthiazol-5-yl)phenyl)-2-morpholinoethyl)pyrrolidine-2-carboxamide] |  |  |  |  |  | B (B (70-90% degradation)) | < 0.1 | D (D (<50% degradation)) | > 1
10 | Cc1ncsc1-c1ccc([C@H](C)NC(=O)[C@@H]2C[C@@H](O)CN2C(=O)[C@H](C2CCN(C(=O)[C@H]3CC[C@H](CN4CCC(c5ccc6c(c5)-n5c(nc(=O)c7c(Cl)cccc75)C65CCCCC5)CC4)CC3)CC2)n2cc(C3CC3)nn2)cc1 [Compound A108, (2S,4R)-1-((S)-2-(1-((1r,4S)-4-((4-(4′-chloro-5′-oxo-5′H-spiro[cyclohexane-1,7′-indolo[1,2-a]quinazolin]-10′-yl)piperidin-1-yl)methyl)cyclohexane-1-carbonyl)piperidin-4-yl)-2-(4-cyclopropyl-1H-1,2,3-triazol-1-yl)acetyl)-4-hydroxy-N—((S)-1-(4-(4-methylthiazol-5-yl)phenyl)ethyl)pyrrolidine-2-carboxamide] | < 0.01 | 70 to 90 | > 1 | < 50 |  |  |  |  | 
